# Data from PMC6801739, “Antitumor Activity of a Novel Tyrosine Kinase Inhibitor AIU2001 Due to Abrogation of the DNA Damage Repair in Non-Small Cell Lung Cancer Cells” (International Journal of Molecular Sciences, 2019).
# Legend:
# [1] = biological target: T1, Met (Homo sapiens, UniProt P08581); assay: Kinase profiling at 10 μM (Eurofins); format: biochemical; details: read-out: Inhibitory activity
# T1 construct: purchased Eurofins Pharma Discovery (KinaseProfiler); IC50 values by Reaction Biology Corp
# T1 sequence (P08581 25-1390): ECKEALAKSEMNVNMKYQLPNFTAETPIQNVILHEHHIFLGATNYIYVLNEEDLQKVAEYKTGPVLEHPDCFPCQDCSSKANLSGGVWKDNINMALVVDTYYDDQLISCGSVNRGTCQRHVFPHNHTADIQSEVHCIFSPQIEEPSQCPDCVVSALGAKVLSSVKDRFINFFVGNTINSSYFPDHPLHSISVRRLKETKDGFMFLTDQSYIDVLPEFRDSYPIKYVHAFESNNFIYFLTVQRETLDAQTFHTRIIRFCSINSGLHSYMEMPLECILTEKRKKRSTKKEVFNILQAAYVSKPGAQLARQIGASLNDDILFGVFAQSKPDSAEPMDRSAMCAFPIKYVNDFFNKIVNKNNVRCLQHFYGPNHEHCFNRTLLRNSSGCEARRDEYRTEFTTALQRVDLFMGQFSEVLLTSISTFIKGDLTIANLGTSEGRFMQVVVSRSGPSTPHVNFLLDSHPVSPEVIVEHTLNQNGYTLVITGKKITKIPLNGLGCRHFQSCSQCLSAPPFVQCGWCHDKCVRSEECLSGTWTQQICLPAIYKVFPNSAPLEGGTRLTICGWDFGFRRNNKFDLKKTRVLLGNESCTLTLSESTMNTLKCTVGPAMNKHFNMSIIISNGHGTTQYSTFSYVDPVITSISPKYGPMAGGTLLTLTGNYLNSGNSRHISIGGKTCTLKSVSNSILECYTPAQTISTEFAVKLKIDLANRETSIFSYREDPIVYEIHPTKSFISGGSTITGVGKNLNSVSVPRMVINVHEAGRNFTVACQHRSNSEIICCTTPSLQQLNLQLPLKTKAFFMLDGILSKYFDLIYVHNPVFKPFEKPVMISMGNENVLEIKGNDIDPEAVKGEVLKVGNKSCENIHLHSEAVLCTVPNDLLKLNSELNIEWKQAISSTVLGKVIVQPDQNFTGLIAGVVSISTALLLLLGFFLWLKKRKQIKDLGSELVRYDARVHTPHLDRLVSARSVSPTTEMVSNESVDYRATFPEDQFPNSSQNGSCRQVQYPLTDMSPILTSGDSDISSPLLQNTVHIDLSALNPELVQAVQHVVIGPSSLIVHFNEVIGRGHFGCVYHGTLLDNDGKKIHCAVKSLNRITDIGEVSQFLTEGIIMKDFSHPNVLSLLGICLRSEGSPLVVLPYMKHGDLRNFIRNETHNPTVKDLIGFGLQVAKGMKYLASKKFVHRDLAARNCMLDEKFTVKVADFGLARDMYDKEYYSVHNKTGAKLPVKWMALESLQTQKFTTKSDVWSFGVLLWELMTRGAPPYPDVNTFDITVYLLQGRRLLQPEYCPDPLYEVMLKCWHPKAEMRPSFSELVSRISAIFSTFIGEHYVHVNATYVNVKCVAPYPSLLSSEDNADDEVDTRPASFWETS
# [2] = biological target: T2, ZAP-70 (Homo sapiens, UniProt P43403); assay: Kinase profiling at 10 μM (Eurofins); format: biochemical; details: read-out: Inhibitory activity
# T2 construct: purchased Eurofins Pharma Discovery (KinaseProfiler); IC50 values by Reaction Biology Corp
# T2 sequence (P43403 whole entry): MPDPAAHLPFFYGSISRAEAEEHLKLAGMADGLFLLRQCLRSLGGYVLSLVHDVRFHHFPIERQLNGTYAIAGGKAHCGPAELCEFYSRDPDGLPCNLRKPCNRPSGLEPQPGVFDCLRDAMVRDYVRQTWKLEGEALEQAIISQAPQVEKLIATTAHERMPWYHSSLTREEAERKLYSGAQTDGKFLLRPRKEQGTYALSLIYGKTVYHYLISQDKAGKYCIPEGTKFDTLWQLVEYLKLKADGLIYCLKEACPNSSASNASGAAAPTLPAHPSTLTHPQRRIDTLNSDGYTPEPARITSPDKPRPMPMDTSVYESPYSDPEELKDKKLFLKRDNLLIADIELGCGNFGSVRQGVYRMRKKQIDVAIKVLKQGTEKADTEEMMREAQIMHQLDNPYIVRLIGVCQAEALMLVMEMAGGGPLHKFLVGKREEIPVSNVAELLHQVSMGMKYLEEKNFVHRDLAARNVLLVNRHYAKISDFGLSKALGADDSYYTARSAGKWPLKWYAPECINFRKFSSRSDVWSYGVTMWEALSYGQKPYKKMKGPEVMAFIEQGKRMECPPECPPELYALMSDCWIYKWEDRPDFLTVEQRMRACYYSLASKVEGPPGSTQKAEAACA
# [3] = biological target: T3, p70S6K (Homo sapiens, UniProt P23443); assay: Kinase profiling at 10 μM (Eurofins); format: biochemical; details: read-out: Inhibitory activity
# T3 construct: purchased Eurofins Pharma Discovery (KinaseProfiler); IC50 values by Reaction Biology Corp
# T3 sequence (P23443 whole entry): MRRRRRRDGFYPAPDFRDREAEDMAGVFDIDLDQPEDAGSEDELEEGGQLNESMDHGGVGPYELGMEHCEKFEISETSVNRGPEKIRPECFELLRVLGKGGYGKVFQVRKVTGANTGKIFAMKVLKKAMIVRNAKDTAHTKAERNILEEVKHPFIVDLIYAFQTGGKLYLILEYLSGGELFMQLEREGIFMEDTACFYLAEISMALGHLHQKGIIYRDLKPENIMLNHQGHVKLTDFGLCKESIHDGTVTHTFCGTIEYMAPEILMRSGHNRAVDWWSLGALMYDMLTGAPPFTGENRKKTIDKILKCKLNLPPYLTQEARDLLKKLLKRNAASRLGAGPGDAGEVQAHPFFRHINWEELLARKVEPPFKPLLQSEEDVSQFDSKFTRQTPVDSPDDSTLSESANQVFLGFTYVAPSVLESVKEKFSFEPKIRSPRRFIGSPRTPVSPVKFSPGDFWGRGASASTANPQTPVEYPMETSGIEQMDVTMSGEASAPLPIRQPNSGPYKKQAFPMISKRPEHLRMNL
# [4] = test system: A549 cells; assay: qPCR of DNA damage repair genes and STAT5 mRNA; format: cell-based, human; details: 24 h
# Description: (§1) RNA was extracted using TRIzol® RNA isolation reagent (ThermoFisher Scientific). RNA was reverse-transcribed into cDNA using the M-MLV reverse transcriptase (Enzynomics, Daejeon, Korea) and RNase inhibitor (Promega, Madison, WI, USA). The sequence of the primers targeting human BRCA1, BRCA2, RAD51, BARD1, XRCC6, and XRCC5 are as follows: BRCA1 sense 5′-[…]-3′, BRCA1 antisense 5′-[…]-3′, BRCA2 sense 5′-[…]-3′, BRCA2 antisense 5′-[…]-3′, RAD51 sense 5′-[…]-3′, RAD51 antisense 5′-[…]-3′, BARD1 sense 5′-[…]-3′, BARD1 antisense 5′-[…]-3′, XRCC6 sense 5′-[…]-3′, XRCC6 antisense 5′-[…]-3′, XRCC5 sense 5′-[…]-3′,and XRCC5 antisense 5′-[…]-3′. β-actin was used as a housekeeping gene for normalization. The cDNA was quantified using real-time PCR with SYBR Green/fluorescein qPCR master mix (ThermoScientific, Carlsbad, CA, USA) on a Lightcycler 96 system (Roche Diagnostics, Mannheim, Germany) according to the manufacturer’s protocol.
# [5] = test system: H1299 cells; assay: qPCR of DNA damage repair genes and STAT5 mRNA; format: cell-based, human; details: 24 h
# Description: as §1
# [6] = test system: A549 cells; assay: Cell cycle analysis (PI, flow cytometry); format: cell-based, human; details: 5 μM
# Description: (§2) Samples were collected at the indicated time points and fixed in 70% cold ethanol overnight. For cell cycle analysis, the fixed cells were treated with RNase for 20 min before addition of 50 μg/mL PI and analyzed using FACS Calibur™ (BD Biosciences, San Jose, CA, USA).
# [7] = test system: H1299 cells; assay: Cell cycle analysis (PI, flow cytometry); format: cell-based, human; details: 5 μM
# Description: as §2
# [8] = biological target: T4, ERBB4 (Homo sapiens, UniProt Q15303); assay: Kinase profiling at 10 μM (Eurofins); format: biochemical; details: read-out: Inhibitory activity
# T4 construct: purchased Eurofins Pharma Discovery (KinaseProfiler); IC50 values by Reaction Biology Corp
# [9] = test system: A549 cells; assay: Immunoblot of cell cycle checkpoint proteins; format: cell-based, human; details: 5 μM
# Description: (§3) Cell lysates were prepared by extracting proteins with TNN buffer (40 mM Tris-Cl pH 8.0, 0.2% NP-40, 120 mM NaCl) or radioimmunoprecipitation assay (RIPA) lysis buffer (Millipore, Billerica MA, USA) supplemented with a protease inhibitor cocktail (Thermo Fisher Scientific, Rockford, IL, USA). Equal amounts of proteins were separated using SDS-PAGE on 8–13% gels, and transferred to nitrocellulose membranes (Bio-Rad, Hercules, CA, USA). The membranes were blocked with 5% skim milk in Tris-buffered saline-Tween 20 (TBST) (150 mM NaCl, 10 mM Tris, 0.2% Tween20), followed by overnight incubation with primary antibodies at 4 °C. The blots were developed using peroxidase-conjugated secondary antibody and the immunoreactive proteins were visualized using enhanced chemiluminescence (ECL) reagents, according to the manufacturer’s recommendations (Amersham, GE Healthcare, Buckingamshire, UK). The protein bands were visualized using a digital imaging system (ImageQuant LAS 4000 mini; GE Healthcare, UK). The protein levels were analyzed using Image J software (National Institutes of Health, Bethesda, MD, USA). Experiments were repeated at least thrice.
# [10] = test system: H1299 cells; assay: Immunoblot of cell cycle checkpoint proteins; format: cell-based, human; details: 5 μM, 6 h or 24 h
# Description: as §3
# [11] = biological target: T5, PDGFRα (Homo sapiens, UniProt P16234); assay: Kinase profiling at 10 μM (Eurofins); format: biochemical; details: read-out: Inhibitory activity
# T5 construct: purchased Eurofins Pharma Discovery (KinaseProfiler); IC50 values by Reaction Biology Corp
# [12] = biological target: T6, c-KIT (V560G) (Homo sapiens, UniProt P10721, V560G); assay: Kinase profiling at 10 μM (Eurofins); format: biochemical; details: read-out: Inhibitory activity
# T6 construct: purchased Eurofins Pharma Discovery (KinaseProfiler); IC50 values by Reaction Biology Corp
# T6 sequence (P10721 26-976 V560G): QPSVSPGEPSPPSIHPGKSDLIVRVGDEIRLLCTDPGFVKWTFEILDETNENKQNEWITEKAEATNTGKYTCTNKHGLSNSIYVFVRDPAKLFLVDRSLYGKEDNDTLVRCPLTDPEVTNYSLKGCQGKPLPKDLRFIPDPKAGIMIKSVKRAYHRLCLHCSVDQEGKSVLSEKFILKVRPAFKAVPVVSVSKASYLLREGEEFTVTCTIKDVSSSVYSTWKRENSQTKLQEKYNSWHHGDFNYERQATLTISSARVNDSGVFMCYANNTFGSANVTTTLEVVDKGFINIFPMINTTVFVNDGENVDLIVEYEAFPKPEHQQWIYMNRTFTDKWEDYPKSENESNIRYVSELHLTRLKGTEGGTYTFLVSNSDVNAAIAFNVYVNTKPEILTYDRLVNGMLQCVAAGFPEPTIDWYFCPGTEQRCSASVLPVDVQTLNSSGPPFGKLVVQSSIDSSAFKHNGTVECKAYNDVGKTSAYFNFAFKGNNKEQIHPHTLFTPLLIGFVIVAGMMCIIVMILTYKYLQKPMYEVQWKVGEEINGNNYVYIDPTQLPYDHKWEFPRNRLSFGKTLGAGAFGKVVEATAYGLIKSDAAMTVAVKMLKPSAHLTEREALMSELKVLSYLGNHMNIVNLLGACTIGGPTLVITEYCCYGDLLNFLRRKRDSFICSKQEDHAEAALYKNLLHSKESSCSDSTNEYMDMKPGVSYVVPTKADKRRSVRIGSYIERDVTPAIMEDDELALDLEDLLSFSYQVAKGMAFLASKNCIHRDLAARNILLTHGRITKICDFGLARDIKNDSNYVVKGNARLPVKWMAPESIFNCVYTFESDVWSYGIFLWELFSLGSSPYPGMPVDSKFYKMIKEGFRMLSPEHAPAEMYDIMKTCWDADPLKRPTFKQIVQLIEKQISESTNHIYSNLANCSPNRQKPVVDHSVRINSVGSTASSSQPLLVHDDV
# [13] = biological target: T7, DDR2 (Homo sapiens, UniProt Q16832); assay: Kinase profiling at 10 μM (Eurofins); format: biochemical; details: read-out: Inhibitory activity
# T7 construct: purchased Eurofins Pharma Discovery (KinaseProfiler); IC50 values by Reaction Biology Corp
# [14] = biological target: T8, SRC (1-530) (Homo sapiens, UniProt P12931); assay: Kinase profiling at 10 μM (Eurofins); format: biochemical; details: read-out: Inhibitory activity
# T8 construct: purchased Eurofins Pharma Discovery (KinaseProfiler); IC50 values by Reaction Biology Corp
# T8 sequence (P12931 1-530 limits assumed): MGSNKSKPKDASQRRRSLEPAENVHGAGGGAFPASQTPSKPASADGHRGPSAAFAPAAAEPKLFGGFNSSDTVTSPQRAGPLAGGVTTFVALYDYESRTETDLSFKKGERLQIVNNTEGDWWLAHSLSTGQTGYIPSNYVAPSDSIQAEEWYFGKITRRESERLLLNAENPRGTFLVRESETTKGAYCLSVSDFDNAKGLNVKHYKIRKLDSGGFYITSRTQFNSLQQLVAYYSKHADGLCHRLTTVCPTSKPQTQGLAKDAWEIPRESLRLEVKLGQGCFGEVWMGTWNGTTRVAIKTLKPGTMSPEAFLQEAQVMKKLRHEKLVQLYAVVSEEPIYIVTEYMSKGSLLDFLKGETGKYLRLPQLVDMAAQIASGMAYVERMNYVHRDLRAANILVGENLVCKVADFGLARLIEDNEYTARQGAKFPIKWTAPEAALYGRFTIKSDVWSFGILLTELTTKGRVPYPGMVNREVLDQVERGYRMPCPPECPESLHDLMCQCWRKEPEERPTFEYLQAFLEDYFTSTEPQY
# [15] = biological target: T9, CDK2/cyclinA (Homo sapiens, UniProt P24941); assay: Kinase profiling at 10 μM (Eurofins); format: biochemical; details: read-out: Inhibitory activity
# T9 construct: purchased Eurofins Pharma Discovery (KinaseProfiler); IC50 values by Reaction Biology Corp
# [16] = biological target: T10, TrkA (Homo sapiens, UniProt P04629); assay: Kinase profiling at 10 μM (Eurofins); format: biochemical; details: read-out: Inhibitory activity
# T10 construct: purchased Eurofins Pharma Discovery (KinaseProfiler); IC50 values by Reaction Biology Corp
# T10 sequence (P04629 33-796): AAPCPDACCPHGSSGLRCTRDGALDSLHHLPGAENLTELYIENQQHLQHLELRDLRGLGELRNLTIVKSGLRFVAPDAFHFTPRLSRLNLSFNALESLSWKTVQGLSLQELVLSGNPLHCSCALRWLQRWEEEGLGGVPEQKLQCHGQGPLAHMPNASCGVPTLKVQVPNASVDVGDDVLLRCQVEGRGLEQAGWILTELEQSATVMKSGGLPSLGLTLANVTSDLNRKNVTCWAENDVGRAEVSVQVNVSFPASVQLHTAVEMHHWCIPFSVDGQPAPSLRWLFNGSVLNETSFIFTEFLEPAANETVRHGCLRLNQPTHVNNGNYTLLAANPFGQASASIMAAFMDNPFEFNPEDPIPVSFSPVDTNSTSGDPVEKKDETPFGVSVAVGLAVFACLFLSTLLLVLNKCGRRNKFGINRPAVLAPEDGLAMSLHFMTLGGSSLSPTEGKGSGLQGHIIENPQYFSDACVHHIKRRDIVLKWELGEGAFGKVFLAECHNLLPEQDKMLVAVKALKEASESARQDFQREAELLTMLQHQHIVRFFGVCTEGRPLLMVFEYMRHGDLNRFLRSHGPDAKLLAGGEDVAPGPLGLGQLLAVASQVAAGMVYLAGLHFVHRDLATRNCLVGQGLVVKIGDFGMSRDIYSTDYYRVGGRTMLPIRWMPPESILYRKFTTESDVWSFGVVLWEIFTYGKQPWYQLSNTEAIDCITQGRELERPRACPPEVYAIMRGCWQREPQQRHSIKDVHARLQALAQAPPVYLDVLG
# [17] = biological target: T11, FLT1 (Homo sapiens, UniProt P17948); assay: Kinase profiling at 10 μM (Eurofins); format: biochemical; details: read-out: Inhibitory activity
# T11 construct: purchased Eurofins Pharma Discovery (KinaseProfiler); IC50 values by Reaction Biology Corp
smiles,measurement,setting,value
"Brc1ccc(-c2cnc(Nc3cccc4ccccc34)o2)cc1 [AIU2001, 5-(4-bromophenyl)-N-(naphthalen-1-yl) oxazol-2-amine]",inhibition at 10 µM,[1],1%
same,inhibition at 10 µM,[2],0%
same,inhibition at 10 µM,[3],8%
same,Expression level of STAT5 mRNA,[4],downregulated
same,"mRNA levels of HR (BRCA1, BRCA2, BARD1, RAD51) and NHEJ (XRCC5, XRCC6) genes",[4],reduced the mRNA levels
same,Expression level of STAT5 mRNA,[5],downregulated
same,"mRNA levels of HR (BRCA1, BRCA2, BARD1, RAD51) and NHEJ (XRCC5, XRCC6) genes",[5],reduced the mRNA levels
same,Cell cycle effect,"[6]; 3 h, 6 h or 24 h",G2/M phase arrest
same,Cells in the sub-G1 phase,[6]; 24 h,3.3%
same,Cell cycle effect,"[7]; 3 h, 6 h or 24 h",G2/M phase arrest
same,Cells in the sub-G1 phase,[7]; 24 h,23.1%
same,inhibition at 10 µM,[8],1%
same,Expression of p21,[9]; A549 (p53 wild-type),increased in A549 cells
same,Expression of phosphorylated p53,[9]; A549 (p53 wild-type),increased in A549 cells
same,CDC25C level,"[9]; A549, 6 h or 24 h",decrease
same,Cyclin B1 level,"[9]; A549, 6 h or 24 h",significant increase
same,Phosphorylated histone H3 level,"[9]; A549, 6 h or 24 h",significant increase
same,Phosphorylation of CHK1 at Ser345,"[9]; A549, 6 h or 24 h",increased the phosphorylation
same,Phosphorylation of CHK2 at Thr68,"[9]; A549, 6 h or 24 h",increased the phosphorylation
same,CDC25C level,[10],decrease
same,Cyclin B1 level,[10],significant increase
same,Phosphorylated histone H3 level,[10],significant increase
same,Phosphorylation of CHK1 at Ser345,[10],increased the phosphorylation
same,Phosphorylation of CHK2 at Thr68,[10],increased the phosphorylation
same,inhibition at 10 µM,[11],48%
same,inhibition at 10 µM,[12],≥ 75%
same,inhibition at 10 µM,[13],55%
same,inhibition at 10 µM,[14],10%
same,inhibition at 10 µM,[15],39%
same,inhibition at 10 µM,[16],40%
same,inhibition at 10 µM,[17],44%
